Read-outs that look alike come from different tables or passages of the source.
Tests used:
[1] = biological target: T1, Progestogen receptor of rabbit uterus (Oryctolagus cuniculus, UniProt P06186); test: Progestogen receptor of rabbit uterus: relative liaison affinity (RLA), displacement of tritiated Product R; format: binding; conditions: for relative liaison affinity (RLA), Progestogen receptor: vs tritiated Product R; for activity for the progestogen receptor (in words): conclusion
T1 construct: Their uterus were removed, weighed and homogenized at 0° C; from tissue; host or cells: 105,000 g supernatant (cytosol) of uterus from estradiol-treated impuberal rabbits
T1 sequence (P06186 1-930): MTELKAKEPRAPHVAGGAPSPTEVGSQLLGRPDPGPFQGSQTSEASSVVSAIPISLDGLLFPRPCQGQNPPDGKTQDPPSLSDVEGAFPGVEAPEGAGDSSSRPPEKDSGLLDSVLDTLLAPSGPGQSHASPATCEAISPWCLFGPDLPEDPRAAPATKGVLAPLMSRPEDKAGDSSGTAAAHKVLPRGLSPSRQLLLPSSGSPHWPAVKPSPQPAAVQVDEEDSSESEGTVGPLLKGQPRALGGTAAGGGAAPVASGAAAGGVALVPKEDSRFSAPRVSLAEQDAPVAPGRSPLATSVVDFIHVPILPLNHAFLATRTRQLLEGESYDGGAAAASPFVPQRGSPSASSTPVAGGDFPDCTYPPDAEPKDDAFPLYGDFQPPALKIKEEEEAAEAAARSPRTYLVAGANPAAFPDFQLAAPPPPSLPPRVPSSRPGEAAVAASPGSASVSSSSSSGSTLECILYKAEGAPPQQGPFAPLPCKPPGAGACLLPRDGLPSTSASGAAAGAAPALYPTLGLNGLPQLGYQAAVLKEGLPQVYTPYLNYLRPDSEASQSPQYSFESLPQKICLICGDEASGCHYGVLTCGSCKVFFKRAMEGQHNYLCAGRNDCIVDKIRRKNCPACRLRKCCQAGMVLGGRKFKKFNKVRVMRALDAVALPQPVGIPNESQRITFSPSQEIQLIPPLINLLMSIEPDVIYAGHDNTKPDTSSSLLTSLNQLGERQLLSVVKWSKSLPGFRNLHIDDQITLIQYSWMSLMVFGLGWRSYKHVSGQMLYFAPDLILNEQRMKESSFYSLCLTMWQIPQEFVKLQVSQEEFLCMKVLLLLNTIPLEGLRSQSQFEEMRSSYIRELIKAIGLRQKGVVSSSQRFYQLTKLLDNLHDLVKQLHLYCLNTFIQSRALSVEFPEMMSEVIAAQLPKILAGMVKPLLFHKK
Protocol: (1) Study of the activity on the hormone receptors
Progestogen receptor of rabbit uterus
Impuberal rabbits of about 1 kg received a cutaneous application of […] of estradiol and 5 days after this treatment, the animals were killed. Their uterus were removed, weighed and homogenized at 0° C. using a Potter teflon-glass in a TS buffered solution (Tris 10 mM, saccharose 0.25M, HCl pH 7.4) (1 g of tissue for 50 ml of TS). The homogenate was then ultracentrifuged at 105,000 g for 90 minutes at 0° C. Aliquots of the supernatant so obtained were incubated at 0° C. for a time t, with a constant concentration (T) of Product R tritiated (17,21-dimethyl-19-nor-Δ^4,9 -pregnadiene-3,20-dione) in the presence of increasing concentrations (0-2,500 10^-9 M) either of R cold, or of cold progesterone, or of the cold product under test. The concentration of tritiated R bonded (B) was then measured in each incubate by the technique of adsorption to dextran-carbon.
(§1) Calculation of the relative liaison affinity
(§2) The calculation of the relative liaison affinity (RLA) was identical for all the receptors. The two following curves were traced: the percentage of tritiated hormone bonded B as a function of the logarithm of the concentration of the cold reference hormone, and B/T as a function of the logarithm of the concentration of the cold product under test. The straight line was determined of the equation [formula] (B/T) max=percentage of tritiated hormone bonded for an incubation of this tritiated hormone at the concentration (T).
(§3) (B/T) min.=percentage of tritiated hormone bonded for an incubation of the tritiated hormone at the concentration (T) in the presence of a great excess of cold hormone (2500.10^-9 M).
(§4) The intersections of the straight line I50 and of the curves enabled the concentrations of the cold reference hormone (CH) and the cold product under test (CX) to be evaluated which inhibit by 50% the bonding of the tritiated hormone on the receptor.
The relative liaison affinity (RLA) of the product under test was determined by the equation [formula] and the following results were obtained: […]

[2] = biological target: T2, Glucocorticoid receptor of rat thymus (Rattus norvegicus, UniProt P06536); test: Glucocorticoid receptor of rat thymus: relative liaison affinity (RLA), displacement of tritiated dexamethasone; format: binding, Male Sprague-Dawley EOPS rats; conditions: for relative liaison affinity (RLA), Glucocorticoid receptor: vs tritiated dexamethasone; for affinity for the glucocorticoid receptors (in words): conclusion
T2 construct: Their thymus was removed and homogenized at 0° C; from tissue; host or cells: 105,000 g supernatant (cytosol) of thymus from adrenalectomized male Sprague-Dawley rats
T2 sequence (P06536 1-795): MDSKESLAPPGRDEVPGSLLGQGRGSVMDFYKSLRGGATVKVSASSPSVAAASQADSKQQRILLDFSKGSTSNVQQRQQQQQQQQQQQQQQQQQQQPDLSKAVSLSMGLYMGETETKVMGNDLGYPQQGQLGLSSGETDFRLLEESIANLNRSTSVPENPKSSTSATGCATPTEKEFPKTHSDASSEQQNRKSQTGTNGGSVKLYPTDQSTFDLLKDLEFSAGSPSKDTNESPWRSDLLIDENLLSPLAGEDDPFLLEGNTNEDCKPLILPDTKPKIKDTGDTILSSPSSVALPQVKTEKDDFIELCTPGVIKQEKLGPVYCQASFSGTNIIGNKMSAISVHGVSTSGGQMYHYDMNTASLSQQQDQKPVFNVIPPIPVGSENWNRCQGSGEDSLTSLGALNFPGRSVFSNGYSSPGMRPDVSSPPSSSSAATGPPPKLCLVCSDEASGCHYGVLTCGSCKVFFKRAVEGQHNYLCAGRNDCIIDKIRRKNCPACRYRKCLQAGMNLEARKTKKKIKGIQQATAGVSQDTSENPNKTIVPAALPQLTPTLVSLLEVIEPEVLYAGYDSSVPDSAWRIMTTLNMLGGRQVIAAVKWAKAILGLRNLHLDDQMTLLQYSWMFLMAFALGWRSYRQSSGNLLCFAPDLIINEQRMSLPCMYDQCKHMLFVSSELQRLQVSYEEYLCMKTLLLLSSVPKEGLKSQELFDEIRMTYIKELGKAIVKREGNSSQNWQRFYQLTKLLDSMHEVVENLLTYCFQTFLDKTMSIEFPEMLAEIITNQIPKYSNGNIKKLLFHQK
Protocol: Glucocorticoid receptor of rat thymus:
Their thymus was removed and homogenized at 0° C. in a buffer Tris 10 mM saccharose 0.25M, dithiotreitol 2 mM, HCl pH 7.4, using a Potter polytetrafluoroethylene-glass (1 g of tissue for 10 ml of TS). The homogenate was then ultracentrifuged at 105,000 g for 90 minutes at 0° C. Aliquots of the supernatant so obtained were incubated at 0° C. for a time (t) with a constant concentration (T) of tritiated dexamethasone in the presence of increasing concentrations (0-2,500.10^-9 M) either of cold dexamethasone, or of the cold product under test. The concentration of tritiated dexamethasone bonded (B) was then measured in each incubate by the technique of adsorption to dextran-carbon.
as §1, §2, §3, §4

[3] = test system: Thymocytes of suprarenalectomized rats; test: Anti-glucocorticoid activity: inhibition of the effect of dexamethasone on incorporation of tritiated uridine in thymocytes; format: cell-based; conditions: for inhibition at 1 µM / inhibition at 0.1 µM / inhibition at 0.01 µM: Thymocyte, read-out: % inhibition of the effect of Dexamethasone
Protocol: (II). Anti-glucocorticoid activity
The technique utilized envolved from the method described by Dausse et al in "Molecular Pharmacology", Vol. 13, p. 948-955 (1977) ("the relationship between glucocorticoid structure and effects upon Thymocytes") for the thymocytes of mice. Thymocytes of suprarenalectomized rats were incubated at 37° C. for 3 hours in a nutritive medium containing 5.10^-8 M of dexamethasone in the presence or not of a product under study at different concentrations. Tritiated uridine was added and the incubation was continued for one hour. The incubates were cooled, then treated with a 5% solution of trichloroacetic acid, filtered on Whatman paper GF/A, and washed three times with a 5% solutioh of trichloroacetic acid. The radio-activity retained by the filter was determined.

[4] = 5.10^-8 M dexamethasone, rat thymocytes
[5] = product at 10^-6 M, 5.10^-8 M dexamethasone, rat thymocytes, 37° C., 3 hours
[6] = product at 10^-7 M, 5.10^-8 M dexamethasone, rat thymocytes, 37° C., 3 hours
[7] = product at 10^-8 M, 5.10^-8 M dexamethasone, rat thymocytes, 37° C., 3 hours

Structure (SMILES)	relative liaison affinity (RLA), Progestogen receptor ([1]; Incubation time 2 H at 0° C.)	relative liaison affinity (RLA), Progestogen receptor ([1]; Incubation time 24 H at 0° C.)	activity for the progestogen receptor (in words) [1]	relative liaison affinity (RLA), Glucocorticoid receptor ([2]; Incubation time 4 H at 0° C.)	relative liaison affinity (RLA), Glucocorticoid receptor ([2]; Incubation time 24 H at 0° C.)	affinity for the glucocorticoid receptors (in words) [2]	effect on dexamethasone-induced diminution in the incorporation of tritiated uridine (in words) [3, 4]	inhibition at 1 µM [3, 5]	inhibition at 0.1 µM [3, 6]	inhibition at 0.01 µM [3, 7]	inhibition at 0.01 µM ([3]; Rattus norvegicus, 3 h)	inhibition at 0.1 µM ([3]; Rattus norvegicus, 3 h)	inhibition at 1 µM ([3]; Rattus norvegicus, 3 h)	incorporation of tritiated uridine (in words) ([3]; rat thymocytes, dexamethasone)
CC#C[C@]1(O)CC[C@H]2[C@@H]3CCC4=CC(=O)CC[C@]4(Cc4ccccc4)C3=CC[C@@]21C [Example 1, 10β-benzyl-17α-(prop-1-ynyl)-Δ^4,9(11) -estradien-17β-ol-3-one]	0.1	0.1	negligible activity	160	57	very marked affinity	oppose this effect	80%	55%	20%				
CC#C[C@]1(O)CC[C@H]2[C@@H]3CCC4=CC(=O)CC[C@]4(Cc4ccc(C)cc4)C3=CC[C@@]21C [Example 4, 10β-[4-methyl-benzyl]-17α-(prop-1-ynyl)-Δ^4,9(11) -estradiene-17β-ol-3-one]			negligible activity				oppose this effect				10%	30%	83%	
C=C(C)C[C@]12CCC(=O)C=C1CC[C@@H]1C2=CC[C@@]2(C)[C@H]1CC[C@@]2(O)C#CC [Example 7, 10β-(2-methyl-prop-2-en-1-yl)-17α-(prop-1-ynyl)-Δ^4,9(11) -estradien 17β-ol-3-one]	0.4	0.1	negligible activity	226	112	very marked affinity	oppose this effect	65%	16%	10%				
CC#C[C@]1(O)CC[C@H]2[C@@H]3CCC4=CC(=O)CC[C@]4(Sc4ccc(OC)cc4)C3=CC[C@@]21C [Example 10, 10β-[(4-methoxyphenyl)-thio]-17α-(prop-1-ynyl)-Δ^4,9(11) -estradien-17β-ol-3-one]	0.9	0.5	negligible activity	218	152	very marked affinity	oppose this effect							
CC#C[C@]1(O)CC[C@H]2[C@@H]3CCC4=CC(=O)CC[C@]4(Cc4ccccc4F)C3=CC[C@@]21C [Example 12, 10β-[2-fluorobenzyl]-17α-(prop-1-ynyl)-Δ^4,9(11) -estradien-17β-ol-3-one]	0.1	0.1	negligible activity	136	45	very marked affinity	oppose this effect	67%	12%	6%				
C[C@@H]1C[C@H]2[C@@H]3CCC4=CC(=O)C=C[C@]4(C)[C@@]3(F)[C@@H](O)C[C@]2(C)[C@@]1(O)C(=O)CO [dexamethasone, reference compound]														diminution in the incorporation of tritiated uridine

Source: patent publication US4753932A, “Novel 10-substituted steroids” (Roussel Uclaf, priority 1985, dated 1988)
